The source of these data is EP1586565A1, “Substituted polycyclic aryl and heteroaryl pyrazinones useful for selective inhibition of the coagulation cascade” (Pharmacia Corporation, priority 1999, dated 2000).

Each structure is given as a SMILES string.

The first assay deals with T1, Human factor Xa (Homo sapiens, UniProt P00742).
T1 construct: leads from XII to XIIa to XIa to IXa and to the conversion of X to Xa; purchased Enzyme Research Laboratories, South Bend IN
T1 sequence (P00742 235-488 limits assumed): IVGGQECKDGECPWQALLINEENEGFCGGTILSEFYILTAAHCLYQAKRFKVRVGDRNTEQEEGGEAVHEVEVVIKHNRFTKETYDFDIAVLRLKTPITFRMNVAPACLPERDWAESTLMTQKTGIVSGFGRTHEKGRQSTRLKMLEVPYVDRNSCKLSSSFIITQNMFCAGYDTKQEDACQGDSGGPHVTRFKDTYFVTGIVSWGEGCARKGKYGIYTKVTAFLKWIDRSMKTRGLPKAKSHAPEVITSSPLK
T1 sequence (P00742 41-179 limits assumed): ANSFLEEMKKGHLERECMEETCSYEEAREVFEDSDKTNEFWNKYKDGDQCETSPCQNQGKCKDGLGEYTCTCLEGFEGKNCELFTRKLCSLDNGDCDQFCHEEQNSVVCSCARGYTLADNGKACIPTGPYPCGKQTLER
The experiment in a line: Xa Assay. The assay is classed as biochemical. The conditions noted are these: 100 µM.
In the case of `COc1ccc(-c2c(Cl)nc(NCCc3ccccc3)c(=O)n2CC(=O)NCCc2ccncc2)cc1` [Example E-0100], the “% Inhibition Factor Xa (100 µM)” value is 6%.

In the case of `O=C(Cn1c(-c2ccc(-c3ccccc3)cc2)c(Cl)nc(NCc2ccccc2)c1=O)NCCc1ccncc1` [Example E-0109], the “% Inhibition Factor Xa (100 µM)” value is on record as 3%.

For `O=C(Cn1c(-c2ccc(Cl)cc2)c(Cl)nc(NCCc2ccc(Cl)cc2)c1=O)NCCc1ccncc1` [Example E-0028], the “% Inhibition Factor Xa (100 µM)” value was found to be 0%.

On to `O=C(Cn1c(-c2cccc(Cl)c2)c(Cl)nc(NCCc2cccc(Cl)c2)c1=O)NCCc1cccnc1` [Example E-0080], for which the “% Inhibition Factor Xa (100 µM)” value was 4%.

As for `O=C(Cn1c(-c2ccc(-c3ccccc3)cc2)c(Cl)nc(NCCc2ccc(Cl)cc2)c1=O)NCCc1ccncc1` [Example E-0118], the “% Inhibition Factor Xa (100 µM)” value was found to be 3%.

As to `O=C(Cn1c(-c2cccc(Cl)c2)c(Cl)nc(NCCc2ccc(Cl)cc2)c1=O)NCCc1cccnc1` [Example E-0083], the “% Inhibition Factor Xa (100 µM)” value is reported as 3%.

Consider `COc1ccc(-c2c(Cl)nc(NCCc3cccc(Cl)c3)c(=O)n2CC(=O)NCCc2ccncc2)cc1` [Example E-0035], for which the “% Inhibition Factor Xa (100 µM)” value was determined as 0%.

In the case of `O=C(Cn1c(-c2ccc(Cl)cc2)c(Cl)nc(NCCc2cccc(Cl)c2)c1=O)NCCc1ccncc1` [Example E-0027], the “% Inhibition Factor Xa (100 µM)” value is reported as 0%.

With `O=C(Cn1c(-c2ccc(Cl)cc2)c(Cl)nc(NCCc2ccc(Cl)cc2)c1=O)NCCc1ccncc1` [Example E-0020], the “% Inhibition Factor Xa (100 µM)” value amounted to 1%.

Consider `O=C(Cn1c(-c2ccc(Cl)cc2)c(Cl)nc(NCCc2cccnc2)c1=O)NCCc1ccncc1` [Example E-0029], for which the “% Inhibition Factor Xa (100 µM)” value is reported as 0%.

As to `O=C(Cn1c(-c2ccc(Cl)cc2)c(Cl)nc(NCc2ccncc2)c1=O)NCCc1ccncc1` [Example E-0032], the “% Inhibition Factor Xa (100 µM)” value is listed as 0%.

The same assay, now with this note: % inhibition at 30 µM (cells with % or %@30, bare 0).
Take `N=C(N)c1ccc(CNC(=O)Cn2c(-c3cccc(Cl)c3)c(Cl)nc(NCCc3ccncc3)c2=O)cc1` [1471-29]: the “IC50 or % Inhibition Factor Xa (30 µM)” value was found to be 21%.

With `CC(C)Nc1nc(Cl)c(-c2cccc(C(=O)O)c2)n(CC(=O)NCc2ccc(C(=N)N)cc2)c1=O` [Example 65], the “IC50 or % Inhibition Factor Xa (30 µM)” value came out at 12%.

For the compound `N=C(N)c1ccc(CNC(=O)Cn2c(-c3ccc4c(c3)OCO4)c(Cl)nc(NCCc3ccc(Cl)cc3)c2=O)cc1` [1471-42], the “IC50 or % Inhibition Factor Xa (30 µM)” value is 15%.

On to `CCc1c(Cl)nc(NCc2ccncc2)c(=O)n1CC(=O)NCc1ccc(C(=N)N)cc1` [1471-59], for which the “IC50 or % Inhibition Factor Xa (30 µM)” value was found to be 0%.

On to `C[C@@H](C(=O)NCc1ccc(C(=N)N)cc1)n1c(-c2ccccc2)c(Cl)nc(NCc2ccccc2)c1=O` [1517-03], for which the “IC50 or % Inhibition Factor Xa (30 µM)” value is 0%.

Take `CN(C)CCCNc1nc(Cl)c(-c2ccccc2)n(CC(=O)NCc2ccc(C(=N)N)cc2)c1=O` [1507-47]: the “IC50 or % Inhibition Factor Xa (30 µM)” value turned out to be 19%.

Regarding `CC(C)(C)CCNc1nc(Cl)c(-c2ccccc2)n(CC(=O)NCc2ccc(C(=N)N)cc2)c1=O` [1517-41], the “IC50 or % Inhibition Factor Xa (30 µM)” value was found to be 0%.

As to `CSc1ccc(N)cc1-c1c(Cl)nc(NC(C)C)c(=O)n1CC(=O)NCc1ccc(C(=N)N)cc1` [compound 76], the “IC50 or % Inhibition Factor Xa (30 µM)” value is on record as 0%.

Turning to `N=C(N)c1ccc(CNC(=O)Cn2c(-c3ccccc3)c(Cl)nc(NCc3cc(F)c(F)c(F)c3)c2=O)cc1` [1512-32], the “IC50 or % Inhibition Factor Xa (30 µM)” value was determined as 5%.

For `CC1CCCC(Nc2nc(Cl)c(-c3ccccc3)n(CC(=O)NCc3ccc(C(=N)N)cc3)c2=O)C1C` (stereo not drawn) [1512-23], the “IC50 or % Inhibition Factor Xa (30 µM)” value was 6%.

For the compound `COc1ccc(CCNc2nc(Cl)c(-c3ccccc3)n(CC(=O)NCc3ccc(C(=N)N)cc3)c2=O)cc1OC` [1512-05], the “IC50 or % Inhibition Factor Xa (30 µM)” value amounted to 10%.

Consider `CC(C)Nc1nc(Cl)c(-c2ccc(Cl)nc2)n(CC(=O)NCc2ccc(C(=N)N)cc2F)c1=O` [compound 74], for which the “IC50 or % Inhibition Factor Xa (30 µM)” value is given as 13%.

Consider `N=C(N)c1ccc(CNC(=O)Cn2c(-c3ccccc3)c(Cl)nc(NC3CCCc4ccccc43)c2=O)cc1` (stereo not drawn) [1507-16], for which the “IC50 or % Inhibition Factor Xa (30 µM)” value is 18%.

As to `N=C(N)c1ccc(CNC(=O)Cn2c(-c3ccc4c(c3)OCO4)c(Cl)nc(NCc3ccccc3)c2=O)cc1` [1471-41], the “IC50 or % Inhibition Factor Xa (30 µM)” value is 34%.

`N=C(N)c1ccc(CNC(=O)Cn2c(-c3cccc(Cl)c3)c(Cl)nc(NCCc3cccc(Cl)c3)c2=O)cc1` [1471-30]: the “IC50 or % Inhibition Factor Xa (30 µM)” value stood at 41%.

For the compound `CC(C)N(C)c1nc(Cl)c(-c2ccccc2)n(CC(=O)NCc2ccc(C(=N)N)cc2)c1=O` [1517-31], the “IC50 or % Inhibition Factor Xa (30 µM)” value came out at 0%.

For the compound `N=C(N)c1ccc(CNC(=O)Cn2c(-c3cccc(Cl)c3)c(Cl)nc(NCc3ccccc3)c2=O)cc1` [1471-25], the “IC50 or % Inhibition Factor Xa (30 µM)” value came out at 31%.

Regarding `N=C(N)NC/C=C\CNC(=O)Cn1c(-c2ccccc2)cnc(NCCc2ccccc2)c1=O` [Example 37], the “IC50 or % Inhibition Factor Xa (30 µM)” value was determined as 0%.

For the compound `N=C(N)c1ccc(CNC(=O)Cn2c(-c3ccccc3)c(Cl)nc(NCCCN3CCCC3=O)c2=O)cc1` [1507-19], the “IC50 or % Inhibition Factor Xa (30 µM)” value is listed as 4%.

For the compound `N=C(N)c1ccc(CNC(=O)Cn2c(-c3cccc(N)c3)c(Cl)nc(NC3CCC3)c2=O)cc1F` [Example 40], the “IC50 or % Inhibition Factor Xa (30 µM)” value amounted to 0%.

Regarding `CCc1c(Cl)nc(NCCc2ccncc2)c(=O)n1CC(=O)NCc1ccc(C(=N)N)cc1` [1471-61], the “IC50 or % Inhibition Factor Xa (30 µM)” value is reported as 0%.

For the compound `N=C(N)c1ccc(CNC(=O)Cn2c(-c3ccccc3)c(Cl)nc(NCCc3cccc(C(F)(F)F)c3)c2=O)cc1` [1512-41], the “IC50 or % Inhibition Factor Xa (30 µM)” value came out at 4%.

Consider `N=C(N)c1ccc(CNC(=O)Cn2c(-c3ccccc3)c(Cl)nc(NCc3ccc(C(F)(F)F)cc3F)c2=O)cc1` [1512-26], for which the “IC50 or % Inhibition Factor Xa (30 µM)” value came out at 5%.

As to `C[C@H](C(=O)NCc1ccc(C(=N)N)cc1)n1c(-c2ccccc2)c(Cl)nc(NCCc2cccc(Cl)c2)c1=O` [1517-23], the “IC50 or % Inhibition Factor Xa (30 µM)” value turned out to be 0%.

Take `N=C(N)c1ccc(CNC(=O)Cn2c(-c3ccccc3)c(Cl)nc(NC3CCCCCC3)c2=O)cc1` [1507-29]: the “IC50 or % Inhibition Factor Xa (30 µM)” value was 4%.

Turning to `N=C(N)c1ccc(CNC(=O)Cn2c(-c3ccccc3)c(Cl)nc(NC3CCS(=O)(=O)C3)c2=O)cc1` (stereo not drawn) [1512-19], the “IC50 or % Inhibition Factor Xa (30 µM)” value was determined as 3%.

As for `Cc1c(Cl)nc(NCCc2cccnc2)c(=O)n1CC(=O)NCc1ccc(C(=N)N)cc1` [1471-8], the “IC50 or % Inhibition Factor Xa (30 µM)” value was 27%.

`N=C(N)c1ccc(CNC(=O)Cn2c(-c3ccccc3)c(Cl)nc(NCc3cc(F)cc(F)c3)c2=O)cc1` [1512-39]: the “IC50 or % Inhibition Factor Xa (30 µM)” value came to 4%.

In the case of `N=C(N)c1ccc(CNC(=O)Cn2c(-c3cccc(Cl)c3)c(Cl)nc(NCCc3cccnc3)c2=O)cc1` [1471-32], the “IC50 or % Inhibition Factor Xa (30 µM)” value was determined as 25%.

For the compound `Cc1c(Cl)nc(NCCc2ccccc2)c(=O)n1CC(=O)NCc1ccc(C(=N)N)cc1` [1471-7], the “IC50 or % Inhibition Factor Xa (30 µM)” value amounted to 4%.

Consider `Nc1n[nH]c2cc(CNC(=O)Cn3c(-c4ccccc4)cnc(NCCc4ccccc4)c3=O)ccc12` [Example 39], for which the “IC50 or % Inhibition Factor Xa (30 µM)” value was determined as 0%.

As to `C[C@H](C(=O)NCc1ccc(C(=N)N)cc1)n1c(-c2ccccc2)c(Cl)nc(NCc2ccccc2)c1=O` [1517-05], the “IC50 or % Inhibition Factor Xa (30 µM)” value was 0%.

Regarding `CSCC(C(=O)NCc1ccc(C(=N)N)cc1)n1c(-c2ccccc2)c(Cl)nc(NC2CCC2)c1=O` (stereo not drawn) [1517-10], the “IC50 or % Inhibition Factor Xa (30 µM)” value was determined as 0%.

As to `N=C(N)c1ccc(CNC(=O)Cn2c(-c3ccccc3)c(Cl)nc(NCCCc3ccccc3)c2=O)cc1` [1512-06], the “IC50 or % Inhibition Factor Xa (30 µM)” value was determined as 4%.

As to `N=C(N)c1ccc(CNC(=O)Cn2c(-c3ccc4c(c3)OCO4)c(Cl)nc(NCCc3cccnc3)c2=O)cc1` [1471-48], the “IC50 or % Inhibition Factor Xa (30 µM)” value worked out at 17%.

Consider `N=C(N)c1ccc(CNC(=O)Cn2c(-c3ccccc3)c(Cl)nc(NCc3cc(F)ccc3F)c2=O)cc1` [1512-36], for which the “IC50 or % Inhibition Factor Xa (30 µM)” value is given as 9%.

Consider `N=C(N)c1ccc(CNC(=O)Cn2c(-c3ccc(Cl)cc3)c(Cl)nc(NCCc3ccc(Cl)cc3)c2=O)cc1` [1471-18], for which the “IC50 or % Inhibition Factor Xa (30 µM)” value worked out at 26%.

With `N=C(N)c1ccc(CNC(=O)Cn2c(-c3ccc4c(c3)OCO4)c(Cl)nc(NCc3ccncc3)c2=O)cc1` [1471-43], the “IC50 or % Inhibition Factor Xa (30 µM)” value was determined as 18%.

As to `C[C@@H](C(=O)NCc1ccc(C(=N)N)cc1)n1c(-c2ccccc2)c(Cl)nc(NC2CCC2)c1=O` [1517-09], the “IC50 or % Inhibition Factor Xa (30 µM)” value was 0%.

Turning to `N=C(N)c1ccc(CNC(=O)Cn2c(-c3cccc(Cl)c3)c(Cl)nc(NCc3ccncc3)c2=O)cc1` [1471-27], the “IC50 or % Inhibition Factor Xa (30 µM)” value is recorded as 16%.

With `N=C(N)c1ccc(CNC(=O)Cn2c(-c3ccccc3O)c(Cl)nc(NC3CCC3)c2=O)cc1` [Example 66], the “IC50 or % Inhibition Factor Xa (30 µM)” value came out at 0%.

In the case of `CC(C)Nc1nc(Cl)c(-c2cccc(N)c2)n(CC(=O)NCCc2ccc(C(=N)N)cc2)c1=O` [Example 62], the “IC50 or % Inhibition Factor Xa (30 µM)” value stood at 10%.

Turning to `N=C(N)c1ccc(CNC(=O)Cn2c(-c3ccccc3)c(Cl)nc(NCCCn3ccnc3)c2=O)cc1` [1507-05], the “IC50 or % Inhibition Factor Xa (30 µM)” value was 10%.

As for `Cc1c(Cl)nc(NCc2ccccc2)c(=O)n1CC(=O)NCc1ccc(C(=N)N)cc1` [1471-1], the “IC50 or % Inhibition Factor Xa (30 µM)” value is 10%.

With `N=C(N)c1ccc(CNC(=O)Cn2c(-c3ccccc3)c(Cl)nc(NCc3ccccc3OC(F)(F)F)c2=O)cc1` [1512-42], the “IC50 or % Inhibition Factor Xa (30 µM)” value amounted to 1%.

As to `N=C(N)c1ccc(CNC(=O)Cn2c(-c3ccsc3)c(Cl)nc(NCCc3cccc(Cl)c3)c2=O)cc1` [1517-19], the “IC50 or % Inhibition Factor Xa (30 µM)” value is recorded as 0%.

Take `N=C(N)c1ccc(CNC(=O)Cn2c(-c3ccccc3)c(Cl)nc(NCc3ccncc3)c2=O)cc1` [1471-11]: the “IC50 or % Inhibition Factor Xa (30 µM)” value is given as 9%.

Turning to `N=C(N)c1ccc(CNC(=O)Cn2c(-c3ccsc3)c(Cl)nc(NCc3ccccc3)c2=O)cc1` [1517-01], the “IC50 or % Inhibition Factor Xa (30 µM)” value is on record as 0%.

Consider `C[C@@H](C(=O)NCc1ccc(C(=N)N)cc1)n1c(-c2ccccc2)c(Cl)nc(NCCc2ccccc2)c1=O` [1517-15], for which the “IC50 or % Inhibition Factor Xa (30 µM)” value is reported as 0%.
